In PubChem BioAssay AID248 (DTP/NCI, 2004):
Values joined by “and” are separate entries in the source; they are usually repeats but may differ in a detail not shown here. Equal values may be shown once. Toxic doses and inconclusive results are not listed. Rule as the data show it: active = T/C of 150% or more; inactive = T/C below 125%.

Tested on: L1210 leukemia ip in BDF1 mice, survival T/C
Test: NCI In Vivo Anticancer Drug Screen. Data for tumor model L1210 Leukemia (intraperitoneal) in B6D2F1 (BDF1) mice
Settings: endpoint: mean survival time, higher = longer survival
Summary of the method: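 Antitumor effect is assessed in tumor-bearing animals. Survival in the compound arm is compared with a vehicle-dosed control arm and expressed as their quotient.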

[1] = dose: 50.0 mg/kg/injection, schedule: Q01DX009 (ip), vehicle: Klucel (hydroxypropylcellulose) (HPC)
[2] = dose: 100.0 mg/kg/injection, schedule: Q01DX009 (ip), vehicle: Klucel (hydroxypropylcellulose) (HPC)
[3] = dose: 100.0 mg/kg/injection, schedule: Q04DX003 (ip), vehicle: Klucel (hydroxypropylcellulose) (HPC)
[4] = dose: 200.0 mg/kg/injection, schedule: Q01DX009 (ip), vehicle: Klucel (hydroxypropylcellulose) (HPC)
[5] = dose: 200.0 mg/kg/injection, schedule: Q04DX003 (ip), vehicle: Klucel (hydroxypropylcellulose) (HPC)
[6] = dose: 100.0 mg/kg/injection, schedule: Q01DX009 (ip), vehicle: saline with Tween-80
[7] = dose: 100.0 mg/kg/injection, schedule: Q04DX003 (ip), vehicle: saline with Tween-80
[8] = dose: 200.0 mg/kg/injection, schedule: Q01DX009 (ip), vehicle: saline with Tween-80
[9] = dose: 200.0 mg/kg/injection, schedule: Q04DX003 (ip), vehicle: saline with Tween-80
[10] = dose: 100.0 mg/kg/injection, schedule: Q01DX001 (ip), vehicle: saline
[11] = dose: 200.0 mg/kg/injection, schedule: Q01DX001 (ip), vehicle: saline
[12] = dose: 400.0 mg/kg/injection, schedule: Q01DX001 (ip), vehicle: saline
[13] = dose: 400.0 mg/kg/injection, schedule: Q04DX003 (ip), vehicle: saline with Tween-80
[14] = dose: 100.0 mg/kg/injection, schedule: Q04DX003 (ip), vehicle: saline
[15] = dose: 50.0 mg/kg/injection, schedule: Q04DX002 (ip), vehicle: Klucel (hydroxypropylcellulose) (HPC)
[16] = dose: 100.0 mg/kg/injection, schedule: Q04DX002 (ip), vehicle: Klucel (hydroxypropylcellulose) (HPC)
[17] = dose: 200.0 mg/kg/injection, schedule: Q04DX002 (ip), vehicle: Klucel (hydroxypropylcellulose) (HPC)
[18] = dose: 400.0 mg/kg/injection, schedule: Q04DX003 (ip), vehicle: Klucel (hydroxypropylcellulose) (HPC)
[19] = dose: 75.0 mg/kg/injection, schedule: Q01DX001 (ip), vehicle: saline

Measured: T/C

N#CC(C#N)N=Nc1ccc(Cl)cc1Cl
inactive: dose: 2.5 mg/kg/injection, schedule: Q04DX002 (ip), vehicle: Klucel (hydroxypropylcellulose) (HPC) 98 % of control | dose: 5.0 mg/kg/injection, schedule: Q04DX002 (ip), vehicle: Klucel (hydroxypropylcellulose) (HPC) 102 % of control | dose: 10.0 mg/kg/injection, schedule: Q04DX002 (ip), vehicle: Klucel (hydroxypropylcellulose) (HPC) 98 % of control

Cc1cc(C)c(C(=O)C=O)c(C)c1
inactive: [1] 101 % of control | [2] 100 % of control | [3] 104 % of control | [4] 95 % of control | [5] 107 % of control

Cc1cccc(NC=O)c1
inactive: [6] 100 % of control | [7] 97 % of control | [8] 98 % of control | [9] 102 % of control | dose: 400.0 mg/kg/injection, schedule: Q01DX009 (ip), vehicle: saline with Tween-80 99 % of control

Nc1nc(=O)c2ccccc2s1
inactive: [10] 97 % of control | [7] 101 % of control | [11] 98 % of control | [9] 108 % of control | [12] 97 % of control | [13] 106 % of control

CC1C2CCC(C2)C1CO (stereo unspecified)
inactive: [14] 97 % of control | dose: 200.0 mg/kg/injection, schedule: Q04DX003 (ip), vehicle: saline 101 % of control | dose: 400.0 mg/kg/injection, schedule: Q04DX003 (ip), vehicle: saline 101 % of control

COC1OC(CI)C(OC(C)=O)C(OC(C)=O)C1OC(C)=O (stereo unspecified)
inactive: [15] 94 % of control | [16] 94 % of control | [17] 97 % of control

CC(SC(C)c1ccccc1)c1ccccc1 (stereo unspecified)
inactive: [6] 93 % of control | [7] 101 % of control | [8] 91 % of control | [9] 106 % of control | [13] 97 % of control

CCCCCCCCCCCCCCCOc1c(Cl)c(Cl)c(Cl)c(Cl)c1Cl
inactive: [3] 95 % of control | [5] 90 % of control | [18] 95 % of control

O=C(Nc1ccc(NC(=O)OCc2ccccc2)c(Cl)c1)OCc1ccccc1
inactive: dose: 75.0 mg/kg/injection, schedule: Q01DX001 (ip), vehicle: Klucel (hydroxypropylcellulose) (HPC) 93 % of control | dose: 75.0 mg/kg/injection, schedule: Q01DX009 (ip), vehicle: Klucel (hydroxypropylcellulose) (HPC) 92 % of control | dose: 150.0 mg/kg/injection, schedule: Q01DX001 (ip), vehicle: Klucel (hydroxypropylcellulose) (HPC) 95 % of control | dose: 150.0 mg/kg/injection, schedule: Q01DX009 (ip), vehicle: Klucel (hydroxypropylcellulose) (HPC) 94 % of control | dose: 300.0 mg/kg/injection, schedule: Q01DX001 (ip), vehicle: Klucel (hydroxypropylcellulose) (HPC) 95 % of control | dose: 300.0 mg/kg/injection, schedule: Q01DX009 (ip), vehicle: Klucel (hydroxypropylcellulose) (HPC) 94 % of control

CNC(COC(=O)c1ccc(N)cc1)C1CCCCC1 (stereo unspecified)
inactive: [19] 97 % of control

CN(CCO)CC1C(c2ccccc2)C1c1ccccc1 (stereo unspecified)
inactive: dose: 12.5 mg/kg/injection, schedule: Q04DX002 (ip), vehicle: Klucel (hydroxypropylcellulose) (HPC) 97 % of control | dose: 25.0 mg/kg/injection, schedule: Q04DX002 (ip), vehicle: Klucel (hydroxypropylcellulose) (HPC) 94 % of control | [15] 90 % of control

CN(CCC(=O)c1cccc2ccccc12)Cc1ccccc1
inactive: [1] 98 % of control | [2] 97 % of control | [3] 100 % of control | [4] 92 % of control | [5] 91 % of control | dose: 400.0 mg/kg/injection, schedule: Q01DX009 (ip), vehicle: Klucel (hydroxypropylcellulose) (HPC) 95 % of control | [18] 100 % of control

Cc1cc(C)c(C(O)C(=O)O)c(C)c1 (stereo unspecified)
inactive: [19] 108 % of control | dose: 150.0 mg/kg/injection, schedule: Q01DX001 (ip), vehicle: saline 97 % of control | dose: 300.0 mg/kg/injection, schedule: Q01DX001 (ip), vehicle: saline 101 % of control

O=[N+]([O-])c1ccccc1N=Nc1c(O)[nH]c2ccc(Br)cc12
inactive: [10] 98 % of control | [11] 101 % of control | [12] 113 % of control

CCCCCCCCCCCC(=O)NC(=S)Nc1ccccc1C(F)(F)F
inactive: [3] 104 % of control | [5] 92 % of control | [18] 92 % of control

C=C1c2[nH]c3ccccc3c2C2C(CC)C1CCN2C (stereo unspecified)
inactive: dose: 30.0 mg/kg/injection, schedule: Q01DX Z (ip), vehicle: olive oil, sesame oil, peanut oil 102 % of control | dose: 50.0 mg/kg/injection, schedule: Q01DX Z (ip), vehicle: olive oil, sesame oil, peanut oil 98 % of control

CCc1cc(C)cc(OC(=O)Nc2cccc(Cl)c2)c1
inactive: [6] 88 % of control | [8] 90 % of control

O=C1NC(=O)/C(=C/c2ccco2)N1
inactive: [3] 103 % of control | [5] 90 % of control

Cc1ccc(CCN)cc1C
inactive: dose: 25.0 mg/kg/injection, schedule: Q04DX003 (ip), vehicle: saline 103 % of control | dose: 50.0 mg/kg/injection, schedule: Q04DX003 (ip), vehicle: saline 101 % of control | [14] 101 % of control and 112 % of control

C(Cc1ccccc1)=Nc1ccc(N=CCc2ccccc2)cc1
inactive: [10] 103 % of control | [11] 112 % of control | [12] 110 % of control

C=CCSc1nc(N)nc2c1nc(SCC=C)n2C1OC(CO)C(O)C1O (stereo unspecified)
inactive: dose: 50.0 mg/kg/injection, schedule: Q01DX005 (ip), vehicle: saline 93 % of control | dose: 100.0 mg/kg/injection, schedule: Q01DX005 (ip), vehicle: saline 102 % of control | dose: 200.0 mg/kg/injection, schedule: Q01DX005 (ip), vehicle: saline 100 % of control

CCS(=O)(=O)C(Br)CBr (stereo unspecified)
inactive: dose: 25.0 mg/kg/injection, schedule: Q01DX009 (ip), vehicle: Klucel (hydroxypropylcellulose) (HPC) 100 % of control | [1] 114 % of control | [2] 105 % of control | [16] 103 % of control | [17] 95 % of control

O=C(/C(=N/OCc1ccccc1)c1ccccc1)c1ccccc1
inactive: [10] 102 % of control | [11] 102 % of control | [12] 98 % of control

Cc1cccc[c]1[Sb]([c]1ccccc1C)[c]1ccccc1C
inactive: dose: 100.0 mg/kg/injection, schedule: Q04DX002 (ip), vehicle: saline with Tween-80 100 % of control | dose: 200.0 mg/kg/injection, schedule: Q04DX002 (ip), vehicle: saline with Tween-80 96 % of control | dose: 400.0 mg/kg/injection, schedule: Q04DX002 (ip), vehicle: saline with Tween-80 96 % of control

Cc1ccc(S(=O)(=O)OC2CCCC3CCCCC32)cc1 (stereo unspecified)
inactive: [10] 98 % of control | [11] 100 % of control | [12] 98 % of control

CN(CCCl)Cc1ccc(-c2c3ccccc3cc3c2ccc2ccccc23)cc1
inactive: dose: 25.0 mg/kg/injection, schedule: Q01DX001 (ip), vehicle: carboxymethylcellulose (CMC) 97 % of control | dose: 50.0 mg/kg/injection, schedule: Q01DX001 (ip), vehicle: carboxymethylcellulose (CMC) 89 % of control | dose: 100.0 mg/kg/injection, schedule: Q01DX001 (ip), vehicle: carboxymethylcellulose (CMC) 92 % of control
